Laboratory results from ChEMBL document CHEMBL1157947, “Antineoplastic Agents. 554. The manitoba bacterium Streptomyces sp” (2006).
In brackets after ≈: the same amount, converted by molar mass.

Columns and labels:
Format in all cases: functional
P388 = assay: Growth inhibition of mouse P388 cells
BXPC-3 = assay: Growth inhibition of human BXPC3 cells
MCF7 = assay: Growth inhibition of human MCF7 cells
SF-268 = assay: Growth inhibition of human SF268 cells
NCI-H460 = assay: Growth inhibition of human NCI-H460 cells
KM-20L2 = assay: Growth inhibition of human KM20L2 cells
DU-145 = assay: Growth inhibition of human DU145 cells
Streptococcus pneumoniae = assay: Antibacterial activity against Streptococcus pneumoniae ATCC 6303 by broth microdilution method
Neisseria gonorrhoeae = assay: Antibacterial activity against Neisseria gonorrhoeae ATCC 49226 by broth microdilution method
Micrococcus luteus = assay: Antibacterial activity against Micrococcus luteus by broth microdilution method
[1] = test system: Stenotrophomonas maltophilia; assay: Antibacterial activity against Stenotrophomonas maltophilia by broth microdilution method
Staphylococcus aureus = assay: Antibacterial activity against Staphylococcus aureus by broth microdilution method
Escherichia coli = assay: Antibacterial activity against sEscherichia coli by broth microdilution method
Enterobacter cloacae = assay: Antibacterial activity against sEnterobacter cloacae by broth microdilution method
Enterococcus faecalis = assay: Antibacterial activity against sEnterococcus faecalis by broth microdilution method
Candida albicans = assay: Antifungal activity against Candida albicans by broth microdilution method
Cryptococcus neoformans = assay: […] activity against Cryptococcus neoformans by broth microdilution method

Row | GI50 (P388) | GI50 (BXPC-3) | GI50 (MCF7) | GI50 (NCI-H460) | GI50 (DU-145) | MIC (Streptococcus pneumoniae) | MIC (Neisseria gonorrhoeae) | MIC (Micrococcus luteus) | MIC [1] | MIC (Staphylococcus aureus) | MIC (Escherichia coli) | MIC (Enterobacter cloacae) | MIC (Enterococcus faecalis) | MIC (Candida albicans) | MIC (Cryptococcus neoformans) | SMILES | GI50 (SF-268) | GI50 (KM-20L2)
1 | 2.8 µg/mL (≈ 16 µM) | 0.31 µg/mL (≈ 1.77 µM) | 0.82 µg/mL (≈ 4.68 µM) | 0.17 µg/mL (≈ 0.97 µM) | 0.21 µg/mL (≈ 1.2 µM) |  |  |  |  |  |  |  |  |  |  | O=C(CO)c1c[nH]c2ccccc12 | 1.8 µg/mL (≈ 10.3 µM) | 1.2 µg/mL (≈ 6.85 µM)
2 | 1.4 µg/mL (≈ 4.69 µM) | 0.54 µg/mL (≈ 1.81 µM) | 0.49 µg/mL (≈ 1.64 µM) | 1.2 µg/mL (≈ 4.02 µM) | 1 µg/mL (≈ 3.35 µM) | 16 µg/mL (≈ 53.6 µM) | 4 µg/mL (≈ 13.4 µM) | > 64 µg/mL | > 64 µg/mL | > 64 µg/mL | > 64 µg/mL | > 64 µg/mL | > 64 µg/mL | > 64 µg/mL | > 64 µg/mL | Cc1cc(=O)n(C)c2c1C(=O)c1c(C)cc(=O)n(C)c1C2=O [DIAZAANTHRAQUINONE] | 1.3 µg/mL (≈ 4.36 µM) | 0.32 µg/mL (≈ 1.07 µM)
